We go through 5 molecules from the supplement of paper PMC10307832.

The structures appear in SMILES notation.

The subject of the first test is HCC-15. Description: relative viability (nuclei count vs DMSO), 5 days (fraction); higher = more cells survive. Conditions: first compound 8 µM. The essentials:
(§1)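 Relative viability equals treated-well nuclei counts divided by vehicle-well nuclei counts. Counts came from 4× images of lung cancer cell lines grown in 1536-well plates for 5 days after pin-tool dosing on the day after seeding. Dosing used one drug alone or a fixed anchor-drug dose plus five library-drug doses (not always all listed) in √10 steps, and values are medians of duplicate plates.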
With `CCCCCCCCCCCC1=C(O)C(=O)C=C(O)C1=O` [Embelin] + COc1cc2c(Oc3ccc(NC(=O)C4(C(=O)Nc5ccc(F)cc5)CC4)cc3F)ccnc2cc1OCCCN1CCOCC1 [Foretinib] (partner 0.25 µM), the relative viability came to 1.08.

As to `CCCCCCCCCCCC1=C(O)C(=O)C=C(O)C1=O` [Embelin] + CS(=O)(=O)N1CCN(Cc2cc3nc(-c4cccc5[nH]ncc45)nc(N4CCOCC4)c3s2)CC1 [Pictilisib] (partner 1 µM), the relative viability was determined as 0.743.

In turn, `CCCCCCCCCCCC1=C(O)C(=O)C=C(O)C1=O` [Embelin] + C[C@@H](Oc1cc(-c2cnn(C3CCNCC3)c2)cnc1N)c1c(Cl)ccc(F)c1Cl [Crizotinib] (partner 1 µM) returned a relative viability of 0.907.

A further test deals with LXF-289. The description is as above. Conditions: first compound 0.08 µM. In outline:
as §1
`CCCCCCCCCCCC1=C(O)C(=O)C=C(O)C1=O` [Embelin] + O=C(CCCCCCC(=O)Nc1ccccc1)NO [Vorinostat] (partner 1 µM) yielded a relative viability of 0.803.

Molecule `CCCCCCCCCCCC1=C(O)C(=O)C=C(O)C1=O` [Embelin] + Cc1cc(Nc2cc(N3CCN(C)CC3)nc(Sc3ccc(NC(=O)C4CC4)cc3)n2)n[nH]1 [Tozasertib] (partner 0.1 µM) returned a relative viability of 0.192.

In turn, `CCCCCCCCCCCC1=C(O)C(=O)C=C(O)C1=O` [Embelin] + COc1cc2c(Oc3ccc(NC(=O)C4(C(=O)Nc5ccc(F)cc5)CC4)cc3F)ccnc2cc1OCCCN1CCOCC1 [Foretinib] (partner 0.25 µM) had a relative viability of 0.999.

As to `CCCCCCCCCCCC1=C(O)C(=O)C=C(O)C1=O` [Embelin] + CS(=O)(=O)N1CCN(Cc2cc3nc(-c4cccc5[nH]ncc45)nc(N4CCOCC4)c3s2)CC1 [Pictilisib] (partner 1 µM), the relative viability was found to be 0.855.

Turning to `CCCCCCCCCCCC1=C(O)C(=O)C=C(O)C1=O` [Embelin] + C[C@@H](Oc1cc(-c2cnn(C3CCNCC3)c2)cnc1N)c1c(Cl)ccc(F)c1Cl [Crizotinib] (partner 1 µM), the relative viability turned out to be 0.835.

The same test, now with this note: first compound 0.8 µM.
Consider `CCCCCCCCCCCC1=C(O)C(=O)C=C(O)C1=O` [Embelin] + O=C(CCCCCCC(=O)Nc1ccccc1)NO [Vorinostat] (partner 1 µM), for which the relative viability amounted to 0.742.

As to `CCCCCCCCCCCC1=C(O)C(=O)C=C(O)C1=O` [Embelin] + Cc1cc(Nc2cc(N3CCN(C)CC3)nc(Sc3ccc(NC(=O)C4CC4)cc3)n2)n[nH]1 [Tozasertib] (partner 0.1 µM), the relative viability came out at 0.187.

Turning to `CCCCCCCCCCCC1=C(O)C(=O)C=C(O)C1=O` [Embelin] + COc1cc2c(Oc3ccc(NC(=O)C4(C(=O)Nc5ccc(F)cc5)CC4)cc3F)ccnc2cc1OCCCN1CCOCC1 [Foretinib] (partner 0.25 µM), the relative viability amounted to 1.

Consider `CCCCCCCCCCCC1=C(O)C(=O)C=C(O)C1=O` [Embelin] + CS(=O)(=O)N1CCN(Cc2cc3nc(-c4cccc5[nH]ncc45)nc(N4CCOCC4)c3s2)CC1 [Pictilisib] (partner 1 µM), for which the relative viability turned out to be 0.794.

`CCCCCCCCCCCC1=C(O)C(=O)C=C(O)C1=O` [Embelin] + C[C@@H](Oc1cc(-c2cnn(C3CCNCC3)c2)cnc1N)c1c(Cl)ccc(F)c1Cl [Crizotinib] (partner 1 µM) had a relative viability of 0.818.

Still in this test, the particulars now being: first compound 2.53 µM.
`CCCCCCCCCCCC1=C(O)C(=O)C=C(O)C1=O` [Embelin] + O=C(CCCCCCC(=O)Nc1ccccc1)NO [Vorinostat] (partner 1 µM) registered a relative viability of 0.715.

Take `CCCCCCCCCCCC1=C(O)C(=O)C=C(O)C1=O` [Embelin] + Cc1cc(Nc2cc(N3CCN(C)CC3)nc(Sc3ccc(NC(=O)C4CC4)cc3)n2)n[nH]1 [Tozasertib] (partner 0.1 µM): the relative viability came out at 0.169.

As for `CCCCCCCCCCCC1=C(O)C(=O)C=C(O)C1=O` [Embelin] + COc1cc2c(Oc3ccc(NC(=O)C4(C(=O)Nc5ccc(F)cc5)CC4)cc3F)ccnc2cc1OCCCN1CCOCC1 [Foretinib] (partner 0.25 µM), the relative viability came out at 1.06.

With `CCCCCCCCCCCC1=C(O)C(=O)C=C(O)C1=O` [Embelin] + CS(=O)(=O)N1CCN(Cc2cc3nc(-c4cccc5[nH]ncc45)nc(N4CCOCC4)c3s2)CC1 [Pictilisib] (partner 1 µM), the relative viability is 0.75.

Turning to `CCCCCCCCCCCC1=C(O)C(=O)C=C(O)C1=O` [Embelin] + C[C@@H](Oc1cc(-c2cnn(C3CCNCC3)c2)cnc1N)c1c(Cl)ccc(F)c1Cl [Crizotinib] (partner 1 µM), the relative viability was determined as 0.884.

Still in this test, the particulars now being: first compound 8 µM.
`CCCCCCCCCCCC1=C(O)C(=O)C=C(O)C1=O` [Embelin] + O=C(CCCCCCC(=O)Nc1ccccc1)NO [Vorinostat] (partner 1 µM) returned a relative viability of 0.809.

For `CCCCCCCCCCCC1=C(O)C(=O)C=C(O)C1=O` [Embelin] + Cc1cc(Nc2cc(N3CCN(C)CC3)nc(Sc3ccc(NC(=O)C4CC4)cc3)n2)n[nH]1 [Tozasertib] (partner 0.1 µM), the relative viability is 0.271.

Molecule `CCCCCCCCCCCC1=C(O)C(=O)C=C(O)C1=O` [Embelin] + COc1cc2c(Oc3ccc(NC(=O)C4(C(=O)Nc5ccc(F)cc5)CC4)cc3F)ccnc2cc1OCCCN1CCOCC1 [Foretinib] (partner 0.25 µM) displayed a relative viability of 0.998.

`CCCCCCCCCCCC1=C(O)C(=O)C=C(O)C1=O` [Embelin] + CS(=O)(=O)N1CCN(Cc2cc3nc(-c4cccc5[nH]ncc45)nc(N4CCOCC4)c3s2)CC1 [Pictilisib] (partner 1 µM) showed a relative viability of 0.819.

On to `CCCCCCCCCCCC1=C(O)C(=O)C=C(O)C1=O` [Embelin] + C[C@@H](Oc1cc(-c2cnn(C3CCNCC3)c2)cnc1N)c1c(Cl)ccc(F)c1Cl [Crizotinib] (partner 1 µM), for which the relative viability was determined as 0.896.

The test system of a further test is H3255. The test is described as above. Conditions: first compound 0.08 µM. In outline: as §1
Molecule `CCCCCCCCCCCC1=C(O)C(=O)C=C(O)C1=O` [Embelin] + O=C(CCCCCCC(=O)Nc1ccccc1)NO [Vorinostat] (partner 1 µM) showed a relative viability of 0.873.

With `CCCCCCCCCCCC1=C(O)C(=O)C=C(O)C1=O` [Embelin] + Cc1cc(Nc2cc(N3CCN(C)CC3)nc(Sc3ccc(NC(=O)C4CC4)cc3)n2)n[nH]1 [Tozasertib] (partner 0.1 µM), the relative viability stood at 0.716.

In the case of `CCCCCCCCCCCC1=C(O)C(=O)C=C(O)C1=O` [Embelin] + COc1cc2c(Oc3ccc(NC(=O)C4(C(=O)Nc5ccc(F)cc5)CC4)cc3F)ccnc2cc1OCCCN1CCOCC1 [Foretinib] (partner 0.25 µM), the relative viability worked out at 0.831.

Turning to `CCCCCCCCCCCC1=C(O)C(=O)C=C(O)C1=O` [Embelin] + CS(=O)(=O)N1CCN(Cc2cc3nc(-c4cccc5[nH]ncc45)nc(N4CCOCC4)c3s2)CC1 [Pictilisib] (partner 1 µM), the relative viability turned out to be 0.574.

With `CCCCCCCCCCCC1=C(O)C(=O)C=C(O)C1=O` [Embelin] + C[C@@H](Oc1cc(-c2cnn(C3CCNCC3)c2)cnc1N)c1c(Cl)ccc(F)c1Cl [Crizotinib] (partner 1 µM), the relative viability was found to be 0.86.

The same test, now with this note: first compound 0.8 µM.
`CCCCCCCCCCCC1=C(O)C(=O)C=C(O)C1=O` [Embelin] + O=C(CCCCCCC(=O)Nc1ccccc1)NO [Vorinostat] (partner 1 µM) displayed a relative viability of 0.834.

`CCCCCCCCCCCC1=C(O)C(=O)C=C(O)C1=O` [Embelin] + Cc1cc(Nc2cc(N3CCN(C)CC3)nc(Sc3ccc(NC(=O)C4CC4)cc3)n2)n[nH]1 [Tozasertib] (partner 0.1 µM): the relative viability was found to be 0.595.
